The test has as its target T1, Corticotropin-releasing factor-binding protein (Homo sapiens, UniProt P24387).
T1 sequence (P24387 whole entry): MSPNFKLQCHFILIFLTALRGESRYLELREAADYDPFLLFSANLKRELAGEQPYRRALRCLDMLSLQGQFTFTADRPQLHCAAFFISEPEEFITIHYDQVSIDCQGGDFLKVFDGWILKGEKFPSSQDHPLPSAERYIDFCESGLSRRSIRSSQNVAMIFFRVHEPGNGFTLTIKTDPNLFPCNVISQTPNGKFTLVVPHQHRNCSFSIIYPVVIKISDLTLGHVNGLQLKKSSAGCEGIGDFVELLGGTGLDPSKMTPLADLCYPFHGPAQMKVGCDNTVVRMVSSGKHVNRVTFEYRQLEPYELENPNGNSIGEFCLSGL
As to the kind of experiment: activators of CRF receptor 2 with binding protein – uHTS hits, confirmation (AID 602473).

As for `COc1ccc(-c2ccc(C3c4c(n[nH]c4C)OC(=N)C3C#N)o2)cc1` (stereo not drawn) [6-amino-4-[5-(4-methoxyphenyl)-2-furanyl]-3-methyl-2,4-dihydropyrano[2,3-c]pyrazole-5-carbonitrile], the midpoint of the response, the EC50, lay at 10.1 µM. Take `COc1ccc(C2=Nc3ncnn3C(c3ccco3)C2)cc1` (stereo not drawn) [7-(2-furanyl)-5-(4-methoxyphenyl)-1,7-dihydro-[1,2,4]triazolo[1,5-a]pyrimidine]: a half-maximal effect (EC50) was put at 4.53 µM.

On to `Fc1ccc(Br)cc1C1CC(c2ccc(Br)cc2)=Nc2ncnn21` (stereo not drawn) [7-(5-bromo-2-fluorophenyl)-5-(4-bromophenyl)-1,7-dihydro-[1,2,4]triazolo[1,5-a]pyrimidine], for which the EC50 – broadly, the concentration giving half of the maximal effect – was > 53 µM. The result for `COc1ccc(C2=c3cc(F)ccc3=NC(c3ccco3)=NN2)cc1` [7-fluoranyl-2-(furan-2-yl)-5-(4-methoxyphenyl)-4H-1,3,4-benzotriazepine] reads > 53 µM; that for `N#CC(C(=O)c1cccc(F)c1)c1nc2ccccc2s1` (stereo not drawn) [(2Z)-2-(3H-1,3-benzothiazol-2-ylidene)-3-(3-fluorophenyl)-3-keto-propionitrile], > 53 µM. As for `N#CC(C(=O)Cc1cccc2ccccc12)c1nc2ccccc2s1` (stereo not drawn) [(2Z)-2-(3H-1,3-benzothiazol-2-ylidene)-4-naphthalen-1-yl-3-oxobutanenitrile], the figure is 3.14 µM. `N#CC(C1=NCCC1)c1nc2ccccc2c(=O)[nH]1` (stereo not drawn) [(2Z)-2-(4-oxo-1H-quinazolin-2-yl)-2-(2-pyrrolidinylidene)acetonitrile]: the EC50 was > 53 µM.

`O=NC1C(=O)N(Cc2c(Cl)cccc2Cl)c2ccccc21` (stereo not drawn) [(3Z)-1-[(2,6-dichlorophenyl)methyl]-3-hydroxyimino-2-indolone] displayed an EC50 of 4.67 µM. `Cc1ccc2oc(=O)c(CC(=O)c3sc(C)nc3C)nc2c1` [(3Z)-3-[2-(2,4-dimethyl-1,3-thiazol-5-yl)-2-oxidanylidene-ethylidene]-6-methyl-4H-1,4-benzoxazin-2-one] had an EC50 of 7.67 µM.

Take `Cc1ccc2oc(=O)c(CC(=O)c3ccco3)nc2c1` [(3Z)-3-[2-(2-furanyl)-2-oxoethylidene]-6-methyl-4H-1,4-benzoxazin-2-one]: the EC50 was determined as 4.74 µM. The molecule `COc1ccc(C(=O)Cc2nc3ccccc3n(-c3ccccc3)c2=O)cc1` [(3Z)-3-[2-(4-methoxyphenyl)-2-oxidanylidene-ethylidene]-1-phenyl-4H-quinoxalin-2-one] yielded a 50% effective concentration (EC50) of 7.85 µM. In turn, `Cc1ccc(C(=O)Cc2nc3ccccc3oc2=O)cc1` [(3Z)-3-[2-(4-methylphenyl)-2-oxidanylidene-ethylidene]-4H-1,4-benzoxazin-2-one] returned an EC50 of 11.4 µM. In the case of `Cc1ccc2oc(=O)c(CC(=O)c3cccs3)nc2c1` [(3Z)-3-[2-keto-2-(2-thienyl)ethylidene]-6-methyl-4H-1,4-benzoxazin-2-one], the EC50 worked out at 4.87 µM.

As for `O=C(Cc1nc2ccccc2n(-c2ccccc2)c1=O)c1ccccc1` [(3Z)-3-phenacylidene-1-phenyl-4H-quinoxalin-2-one], the EC50 came out at 11.6 µM. Take `Cc1ccc2oc(=O)c(CC(=O)c3ccccc3)nc2c1` [(3Z)-6-methyl-3-(2-oxo-2-phenylethylidene)-3,4-dihydro-2H-1,4-benzoxazin-2-one]: a half-maximal effect (EC50) was put at 12.1 µM. The result for `CCOc1ccc(C2C(C(=O)c3ccc4c(c3)OCCO4)C(=O)C(=O)N2CCCN2CCOCC2)cc1` (stereo not drawn) [(4E)-4-[2,3-dihydro-1,4-benzodioxin-6-yl(oxidanyl)methylidene]-5-(4-ethoxyphenyl)-1-(3-morpholin-4-ylpropyl)pyrrolidine-2,3-dione] reads > 53 µM; that for `CCCCN1C(=O)NC(=O)C(C(=O)C=Cc2c[nH]c3ccccc23)C1=O` (stereo not drawn) [(5Z)-1-butyl-5-[(E)-3-(1H-indol-3-yl)-1-oxidanyl-prop-2-enylidene]-1,3-diazinane-2,4,6-trione], 6.02 µM; that for `O=CC(C=Nc1ccccn1)c1nc2cc(Cl)ccc2o1` (stereo not drawn) [(Z)-2-(5-chloranyl-1,3-benzoxazol-2-yl)-3-(pyridin-2-ylamino)prop-2-enal], > 53 µM.

Consider `N#CCSc1nnc(CNc2ccc(F)cc2)o1` [({5-[(4-fluoroanilino)methyl]-1,3,4-oxadiazol-2-yl}sulfanyl)acetonitrile], for which the EC50 was > 53 µM. Consider `COc1ccc(C2=Nc3nnnn3C(c3cccc(OC)c3)C2)cc1` (stereo not drawn) [MLS000036434], for which the EC50 was > 53 µM. In the case of `CCOC(=O)C1=C(C)N=C(SCC(=O)OC)C(C#N)C1c1ccc(C(=O)OC)cc1` (stereo not drawn) [MLS000039154], the EC50 is > 53 µM.

Consider `C=CCOC(=O)C1C(C)=NC2(O)c3ccccc3C(=O)C12O` (stereo not drawn) [MLS000068305], for which the EC50 was > 53 µM. Turning to `Cc1c(Cl)ccc2c1NC(=O)C21NC(CCC(N)=O)c2c1c(O)n(-c1ccc(Cl)cc1)c2O` (stereo not drawn) [MLS000083515], the EC50 was > 53 µM. As for `CCCC(NCC(=O)O)=C1C(=O)CC(C)(C)C(C(=O)OC)C1=O` (stereo not drawn) [MLS000108316], the figure is > 53 µM; as for `CSc1nnc(C)c(CC=Nc2ccc(C)cc2)n1` [MLS000326071], 14.9 µM; as for `N#CC(C(=O)COC(=O)COc1cccc(Br)c1)c1nc2ccccc2[nH]1` (stereo not drawn) [MLS000391269], > 53 µM.

As to `CC(=O)C1C(=O)C(=O)N(c2nccs2)C1c1ccccc1` (stereo not drawn) [MLS000533923], the EC50 is > 53 µM. For the molecule `COC(=O)C1=C(C)N=C(C)C(C(=O)OC)C1/C=C/c1ccccc1` (stereo not drawn) [MLS000571366], the EC50 is > 53 µM. As for `COc1ccc(/C=N/OCC(=O)NNC2=c3cc(Br)ccc3=NC2=O)cc1` [MLS000587830], the figure is > 53 µM. Take `Nc1[nH]c(=O)sc1C=C1C=CC(=O)C=C1` [MLS000697264]: the EC50 was > 53 µM. The result for `CC1(C)CC(=O)C(=CNc2ccc(C(=O)c3ccccc3)cc2NC=C2C(=O)CC(C)(C)CC2=O)C(=O)C1` [MLS000724193] reads > 53 µM. Consider `Cn1c(SCC(=O)N/N=C/C2C=C([N+](=O)[O-])C=CC2=O)nnc1-c1ccccc1` (stereo not drawn) [MLS000777077], for which the EC50 was > 53 µM. Consider `Cc1cc(C)n(CCC(=O)NNC2=c3cc(Br)ccc3=NC2=O)n1` [MLS000777238], for which the EC50 was > 53 µM.

As for `CC(=O)C1C(C)=NC(=S)NC1c1cc([N+](=O)[O-])ccc1O` (stereo not drawn) [MLS000777581], the EC50 was > 53 µM. In the case of `O=C(Nn1c(O)csc1=S)c1cccnc1` [MLS000780148], the EC50 was > 53 µM.

Molecule `COc1ccc(C(C)N=Nc2ccc([N+](=O)[O-])cc2S(=O)(=O)Nc2ccccc2C(=O)O)c(OC)c1` (stereo not drawn) [MLS002249507] registered an EC50 of 38.6 µM. The result for `Cn1c(O)c(N=Nc2ccc([N+](=O)[O-])cc2)sc1=S` [MLS002608645] reads 1.69 µM.

Consider `CN(C)c1ccc(C=Nn2c(O)csc2=S)c(Cl)c1` [MLS002919800], for which the 50% effective concentration (EC50) was > 53 µM. For `Oc1csc(=S)n1N=Cc1c(F)cccc1Cl` [MLS002919802], the EC50 is > 53 µM. With `Cc1cc2c(cc1Br)=NC(=O)C=2NNC(=O)C1CC1c1ccccc1` (stereo not drawn) [N'-(6-bromo-5-methyl-2-oxo-3-indolyl)-2-phenyl-1-cyclopropanecarbohydrazide], the EC50 is > 53 µM. As to `COc1ccccc1NS(=O)(=O)c1ccc(N=NCc2c(C)nn(-c3ccccc3)c2N2CCCC2)c([N+](=O)[O-])c1` [N-(2-methoxyphenyl)-4-[(2E)-2-[(3-methyl-1-phenyl-5-pyrrolidin-1-yl-pyrazol-4-yl)methylidene]hydrazinyl]-3-nitro-benzenesulfonamide], the concentration giving a half-maximal response (EC50) is > 53 µM. In the case of `Cc1noc(NS(=O)(=O)c2ccc(N=CCC(=O)c3cccc4ccccc34)cc2)c1C` [N-(3,4-dimethyl-1,2-oxazol-5-yl)-4-[[(Z)-3-naphthalen-1-yl-3-oxidanylidene-prop-1-enyl]amino]benzenesulfonamide], the EC50 was > 53 µM. In the case of `Cc1ccc(C)c2sc(NC(=O)c3ccc(-n4c(O)ccc4O)cc3)nc12` [N-(4,7-dimethyl-1,3-benzothiazol-2-yl)-4-(2,5-dioxopyrrolidin-1-yl)benzamide], the EC50 was > 53 µM.

With `CN1c2ccccc2C(=O)C(C(=S)Nc2ccc(Cl)cc2)S1(=O)=O` (stereo not drawn) [N-(4-chlorophenyl)-4-hydroxy-1-methyl-2,2-dioxo-1,2-dihydro-2lambda~6~,1-benzothiazine-3-carbothioamide], the EC50 was > 53 µM. For `CCCCN(C(=O)c1ccc2c(c1)S(=O)(=O)NC1=CCCCCN12)c1c(N)n(CCCC)c(=O)[nH]c1=O` [N-(6-amino-1-butyl-2,4-dioxo-5-pyrimidinyl)-N-butyl-5,5-dioxo-8,9,10,11-tetrahydro-7H-azepino[2,1-c][1,2,4]benzothiadiazine-3-carboxamide], the EC50 was > 53 µM. With `CCC(C)(C)NC(=O)C(c1ccccc1F)N(Cc1ccco1)C(=O)c1csnn1` (stereo not drawn) [N-[1-(2-fluorophenyl)-2-(2-methylbutan-2-ylamino)-2-oxoethyl]-N-(2-furanylmethyl)-4-thiadiazolecarboxamide], the EC50 turned out to be 15.6 µM. In the case of `O=NCc1ccc(Oc2ccc(F)cc2)c([N+](=O)[O-])c1` [N-[[4-(4-fluorophenoxy)-3-nitrophenyl]methylidene]hydroxylamine], the EC50 was > 53 µM.

As to `COC(=O)C1=Nc2nnnn2C(c2ccc(O)c(OC)c2)C1C(=O)c1ccccc1` (stereo not drawn) [SMR000020111], the EC50 was > 53 µM. With `COc1ccc(C2=Nc3nnnn3C(c3ccc(C)cc3)C2)cc1` (stereo not drawn) [SMR000035317], the EC50 is > 53 µM. Turning to `CCc1ccccc1-n1c(O)c2c(c1O)CC(C)=C(C)C2` [SMR000104383], the EC50 was > 53 µM. The result for `CC(=CN=Nc1nc(C)cc(C)n1)Cc1ccc(C(C)C)cc1` [SMR000146220] reads > 53 µM; that for `Cc1[nH]c2ccccc2c1/C=C1\N=C(c2ccc(C(F)(F)F)cc2)OC1=O` [SMR000152363], 10.2 µM. As to `Cc1ccc(-n2[nH]c(C)c(CN=Nc3ccc([N+](=O)[O-])cc3[N+](=O)[O-])c2=O)cc1` [SMR000171521], the EC50 is > 53 µM.

These data come from BindingDB's records for doi:10.7270/Q2VX0F3D (Burnham Center For Chemical Genomics, 2012).
